Assay results reported in patent US20100075978A1, “SULFONAMIDE DERIVATIVES AS BRADYKININ ANTAGONISTS” (priority 2006, published 2010).
Where a name gives a salt, the structure may show the parent alone. Read-outs that look alike come from different tables or passages of the source.

How the values were obtained:
[1] = target: T1, human recombinant bradykinin B1 receptor (Homo sapiens, UniProt P46663); assay: Human recombinant bradykinin B1 receptor binding
T1 construct: purchased Euroscreen ES-091; host or cells: CHO cells
T1 sequence (P46663 1-353): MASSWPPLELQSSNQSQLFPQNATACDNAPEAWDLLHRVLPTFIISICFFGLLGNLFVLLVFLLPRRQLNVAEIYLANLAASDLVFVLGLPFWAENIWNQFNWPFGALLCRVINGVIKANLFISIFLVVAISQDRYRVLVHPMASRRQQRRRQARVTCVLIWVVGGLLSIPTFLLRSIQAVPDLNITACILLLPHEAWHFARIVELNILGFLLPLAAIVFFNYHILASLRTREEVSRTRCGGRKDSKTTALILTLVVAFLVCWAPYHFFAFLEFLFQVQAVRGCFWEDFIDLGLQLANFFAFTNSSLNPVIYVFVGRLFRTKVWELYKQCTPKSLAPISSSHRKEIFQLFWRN
Protocol: 1. Human Recombinant Bradykinin B1 Receptor Binding
Binding assays were carried out on human recombinant bradykinin) receptors (expressed in CHO cells) according to the Euroscreen Technical Data Sheet (Cat.No.:ES-091). 20 μg protein/tube was incubated with [3,4-prolyl-3,4-^3H(N)]-[Des-Arg^10] Kallidin as radioligand. Non specific binding was determined in the presence of 10 μM Lys-des-Arg^9-Bradykinin. The final incubation volume was 250 μl. Samples were incubated for 15 min. at 25° C. then were rapidly vacuum filtered through GF/B filters presoaked for at least 1 h in 0.5% PEI. Radioactivity was determined by liquid scintillation spectroscopy.

[2] = target: T2, recombinant human B1 receptors (Homo sapiens, UniProt P46663); assay: Functional assay: cytosolic calcium ion concentration measured with plate reader fluorimeter in CHO-B1 cells, agonist LysDABK; type: cell-based
T2 construct: host or cells: CHO (CHO-B1)
T2 sequence (P46663 1-353): T1 sequence (P46663 1-353)
Protocol: Assessment of Antagonist Potency at B1 and B2 Receptors In Vitro by Measurement of Cytosolic Calcium Ion Concentration with a Plate Reader Fluorimeter in Cells Expressing Recombinant Human B1 or B2 Receptors
Chinese hamster ovary (CHO) cells stably expressing recombinant human B1 (CHO-B1, Euroscreen) or B2 (CHO-B2, Perkin-Elmer) receptors were cultured in Dulbecco's Modified Eagle's Medium (DMEM) containing 10% Fetal Calf Serum (FCS), 100 U/ml penicillin, 0.1 mg/ml streptomycin, 0.25 μg/ml amphotericin B, 1% Minimum Essential Medium Eagle (MEM), non essential amino acid solution, 600 μg/ml G418, 1% pyruvate (for the B2 cell line). Cells were kept at 37° C. in a humidified incubator in an atmosphere of 5% CO2/95% air and were passaged 1:4 three times a week. Cells were plated at 1.5-2.5×10^4 cell/well on standard 96-well microplates, measurements of cytosolic calcium ion concentration ([Ca^2+]i) were carried out 1-2 days after cell plating.
Measurements of [Ca^2+]i were carried out on CHO-B1 and CHO-B2 cells stably expressing human B1 and B2 receptors, respectively. Cells were grown in standard 96-well microplates and before the measurement were loaded with a fluorescent Ca^2+-sensitive dye, fluo-4/AM (2 μM): after removing the culture medium the dye was added to the cells (dissolved in assay buffer: 145 mM NaCl, 5 mM KCl, 2 mM MgCl2, 2 mM CaCl2, 10 mM HEPES, 20 mM D-glucose, 2 mM probenecid, 100 μl/well) and cells were incubated at 37° C. in a humidified incubator in an atmosphere of 5% CO2/95% air for 40-120 min. To stop dye loading cells were washed twice with assay buffer. After washing, various concentrations of the test compounds (diluted in extracellular medium from a DMSO stock solution, final DMSO concentration was <0.1%) or buffer were added to each well depending on the experimental setup. After incubation at 37° C. for 20-25 min. baseline and agonist-evoked changes of [Ca^2+]i were measured column by column with a plate reader fluorimeter (Fluoroskan Ascent, Labsystems). Excitation and detection of emission was carried out from the bottom of the plate. Filters used for Fluo-4: excitation filter—485 nm, emission filter—538 nm. The whole measurement process was performed at 37° C. and was controlled by custom software. Inhibitory potency of the test compounds was assessed by measuring the reduction in the agonist-evoked [Ca^2]i-elevation in the presence of different concentrations of the compounds. The agonists were LysDABK for CHO-B1, and bradykinin for CHO-B2 cells. Agonists were applied at an EC80 concentration, the EC80-values were derived from daily determined dose-response curves. Fluorescence data were expressed as ΔF/F (fluorescence change normalized to baseline). All treatments on a single plate were measured in multiple wells. Data from all wells with the same treatment were averaged and the average values were used for analysis. Inhibitory potency of a compound at a single concentration point was expressed as percent inhibition of the control agonist response. Sigmoidal concentration-inhibition curves were fitted to the data (derived from at least three independent experiments) and IC50-values were determined as the concentration that produces half of the maximal inhibition caused by the compound.

[3] = radioligand [3H]-[Des-Arg10] Kallidin, CHO cell membranes, read-out: B1 binding
[4] = CHO-B1 cells, LysDABK at EC80, [Ca2+]i, read-out: B1 func.
[5] = reference compounds, binding test, read-out: Ki
[6] = reference compounds, functional test, read-out: IC50

Row | SMILES | Ki [1, 3] [nM] | IC50 [2, 4] [nM] | Ki [1, 5] [nM] | IC50 [2, 6] [nM]
1 | COc1ccc(Oc2ccccc2NS(=O)(=O)c2ccc(C(=O)NCCCN3CCC(N4CCCCC4)CC3)cc2)c(Cl)c1 [Example 147, N-(3-[1,4′]Bipiperidinyl-1′-yl-propyl)-4-[2-(2-chloro-4-methoxy-phenoxy)-phenylsulfamoyl]-benzamide] | 20 to 100 | 20 to 100 | – | –
2 | O=C(NCCCN1CCC(N2CCCCC2)CC1)c1ccc(S(=O)(=O)Nc2ccccc2Oc2ccccc2)cc1 [Example 152, N-(3-[1,4′]Bipiperidhlyl-1′-yl-propyl)-4-(2-phenoxy-phenylsulfamoyl)-benzamide] | 20 to 100 | 20 to 100 | – | –
3 | O=C(NCCCN1CCC(N2CCCCC2)CC1)c1ccc(S(=O)(=O)Nc2ccccc2Oc2ccc(Br)cc2Cl)cc1 [Example 157, N-(3-[1,4′]Bipiperidinyl-1′-yl-propyl)-4-[2-(4-bromo-2-chloro-phenoxy)-phenylsulfamoyl]-benzamide] | < 20 | < 20 | – | –
4 | O=C(NCCN1CCN(c2cnccn2)CC1)c1ccc(S(=O)(=O)Nc2ccccc2Oc2ccc(Br)cc2Cl)cc1 [Example 159, 4-[2-(4-Bromo-2-chloro-phenoxy)-phenylsulfamoyl]-N-[2-(2,3,5,6-tetrahydro-[1,2′]bipyrazinyl-4-14)-ethyl]-benzamide] | 20 to 100 | 20 to 100 | – | –
5 | O=C(NCc1ccc(CC2CCNCC2)cc1)c1ccc(S(=O)(=O)Nc2ccccc2Oc2ccc(Br)cc2Cl)cc1 [Example 166, 4-[2-(4-Bromo-2-chloro-phenoxy)-phenylsulfamoyl]-N-(4-piperidin-4-ylmethyl-benzyl)-benzamide hydrochloride] | 20 to 100 | 20 to 100 | – | –
6 | O=C(NCCCCC1CCNCC1)c1ccc(S(=O)(=O)Nc2ccccc2Oc2ccc(Br)cc2Cl)cc1 [Example 167, 4-[2-(4-Bromo-2-chloro-phenoxy)-phenylsulfamoyl]-N-(4-piperidin-4-yl-butyl)-benzamide hydrochloride] | 20 to 100 | 20 to 100 | – | –
7 | O=C(Nc1ccc(N2CCC(N3CCCCC3)CC2)cc1)c1ccc(S(=O)(=O)Nc2ccccc2Oc2ccc(Br)cc2Cl)cc1 [Example 169, N-(4-[1,4′]Bipiperidinyl-1′-yl-phenyl)-4-[2-(4-bromo-2-chloro-phenoxy)-phenylsulfamoyl]-benzamide] | < 20 | < 20 | – | –
8 | O=C(NCCCCC1CCNCC1)c1ccc(S(=O)(=O)Nc2ccccc2Oc2ccc(Cl)cc2Cl)cc1 [Example 170, 4-[2-(2,4-Dichloro-phenoxy)-phenylsulfamoyl]-N-(4-piperidin-4-yl-butyl)-benzamide hydrochloride] | < 20 | < 20 | – | –
9 | CN1CCN(C(=O)C2CCN(S(=O)(=O)c3ccc(NCC(c4ccccc4)c4ccccc4)c(C(=O)N4CCOCC4)c3)CC2)CC1 [NVP-SAA164, 4-{2-[(2,2-diphenyl-ethyl)-amino]-5-{4-[4-[(4-methyl-1-piperazinyl)-carbonyl]-1-piperidinyl]-sulfonyl}-benzoyl}-morfoline, reference compound] | – | – | 8 | 33
10 | CCCN1C(=O)[C@H](NC(=O)Nc2ccc(N3CCN(c4ccncc4)CC3)cc2)N=C(CCc2ccccc2)c2ccccc21 [compound 2, (R)—N-[2,3-dihydro-2-oxo-5-(2-phenyl-ethyl)-1-propyl-1H-1,4-benzodiazepin-3-yl]-N′-{4-[4-(4-pyridinyl)-1-piperazinyl]-phenyl}-urea, reference compound] | – | – | 0.59 | 1.9
11 | CCCN1C(=O)[C@H](NC(=O)Nc2ccc(N3CCC(N4CCCCC4)CC3)cc2)N=C(c2ccc(C)cc2)c2ccccc21 [compound 3, N-[4-(,4′-bipiperidin)-1′-ylphenyl]-N′-[(3R)-2,3-dihydro-5-(4-methyl-phenyl)-2-oxo-1-propyl-1H-1,4-benzodiazepin-3-yl]-urea, reference compound] | – | – | 13.4 | 64.5
